Experimental data taken from US20210260057A1, “COMPOSITIONS AND METHODS TARGETING GLUTAMINE AND ITS METABOLISM FOR DIAGNOSING AND TREATING CANCER AND THERAPY-ASSOCIATED SIDE EFFECTS” (CEDARS-SINAI MEDICAL CENTER, priority 2018, published 2021).
Several values for one entry are separate records, joined by “and”; a condition that tells them apart may be missing. Equal entries are not always repeated.

How the values were obtained:
RASAL3 mRNA in NAF = assay: RASAL3 mRNA expression (rtPCR) in NAF; type: cell-based, human; conditions: 5-day treatment; Bic 10^−5 M, Enza 10^−5 M, R1881 10^−9 M
Description: (§1) RNA expression level. All real-time PCR assays were carried out using three technical replicates and three independent cDNA syntheses on a 7500 Real-Time PCR System (Applied Biosystems). Data were normalized using an internal control gene, either GAPDH or β-actin. Relative quantification of expression levels (RQ) was calculated using the ^2-ΔΔCt method.

RASAL3 mRNA in CAF = assay: RASAL3 mRNA expression (rtPCR) in CAF; type: cell-based, human; conditions: 5-day treatment; Bic 10^−5 M, Enza 10^−5 M, R1881 10^−9 M, 5-Aza 5 mmol/L
Description: as §1

RASAL3 promoter = assay: Methylation specific PCR of RASAL3 exon 2 in CAF; type: cell-based, human; conditions: CAF after treatment
Description: (FIG. 13A) Quantitative rtPCR analysis of RASAL3 in NAF and CAF was performed following 5 day treatment with bicalutamide (Bic, 10^−5 M), enzalutamide (Enza, 10^−5 M), R1881 (10^−9 M), or 5-Azacytidine (5-Aza, […]). RASAL3 expression was normalized GAPDH expression. Data represent the mean±SEM. *P<0.05, ***P<0.001, and ****P<0.0001, by two-way ANOVA followed by multiple comparison. Results are the average of at least three independent experiments. (FIG. 13B) MS-PCR of the RASAL3 exon 2 methylation status in CAF after treatment with enzalutamide, R1881, 5-Azacytidine and bicalutamide was performed. The PCR products in the lanes marked “U” indicate unmethylated templates for RASAL3 gene, whereas the products in the lanes marked “M” indicate methylated templates. Data are representative of three independent experiments.

RASAL3 exon 2 = assay: Bisulfite sequencing of RASAL3 exon 2 in CAF; type: cell-based, human; conditions: CAF treated with R1881 for 5 days
Description: Bisulfite Sequencing. Bisulfite sequencing was performed as described previously (Haldar S, Dru C, Mishra R, Tripathi M, Duong F, Angara B, Fernandez A, Arditi M, and Bhowmick N A. Histone deacetylase inhibitors mediate DNA damage repair in ameliorating hemorrhagic cystitis. Sci Rep. 2016; 6(39257). Briefly, genomic DNA was extracted from the NAF and CAF samples and 200 ng of DNA was bisulfite converted by using the EZ DNA Methylation-Gold Kit (Zymo Research, Irvine, Calif.) according to the manufacturer's protocol. Three overlapping primers were used for amplification of Exon 2 region of RASAL3 by ZymoTaq DNA polymerase (Zymo Research) and subsequently cloned into the pCR2.1-TOPO vector (Invitrogen by Life Technologies, Carlsbad, Calif.). The primer sequences used to amplify the three regions were designed by using the Meth-Primer program (www.urogene.org/methprimer/) and are listed in Table 4. Five clones from each sample were sequenced by using Sanger's method.

[1] = system: prostate cancer epithelial cells; assay: ALDH (stem marker) in prostate cancer epithelial cells; type: cell-based; conditions: prostate cancer epithelial cells (FIG. 17A, 17B)
C4-2B cells = assay: qPCR of neuroendocrine marker genes, C4-2B; type: cell-based, human; conditions: L-glutamine 2 mM, P<0.0001
Description: as §1

CWR22Rv1 [2] = assay: Glutamine transporter gene expression, CWR22Rv1; type: cell-based, human; conditions: CWR22Rv1, glutamine 2 mM
Description: as §1

C4-2B = assay: Glutamine transporter and glutaminase gene expression, C4-2B; type: cell-based, human; conditions: glutamine 2 mM
Description: as §1

CWR22Rv1 [3] = assay: CWR22Rv1 proliferation by cell counting in conditioned media; type: cell-based, human; conditions: NAF-CM supplemented with 0.4 mM glutamine, 72 hrs; compared to CAF-CM
Description: (FIG. 3A) Relative mRNA expression levels of CAF-marker genes in WT and Ras^V12 mouse fibroblast determined by quantitative rtPCR and analyzed using 2-way ANOVA (n≤3). (FIG. 3B) EpCAM-positive cancer epithelial was quantitated by FACS of 3D co-cultures of human epithelial (CWR22Rv1) cells and WT or Ras^V12 mouse fibroblasts. Statistical analysis was performed using two-tailed student's t test (n≤3). (FIG. 3C) ATP was measured in CWR22Rv1 after incubation with conditioned media human NAF or CAF or mouse WT or Ras^V12 fibroblast or oligomycin in glutamine free media (n≤3). Statistical analysis was performed using 1-way ANOVA with multiple comparisons. (FIG. 3D) The diagram represents the TCA cycle in CWR22Rv1 cells treated with NAF- or CAF-conditioned media for 72 hours prior to metabolome analysis (n≤3). (FIG. 3E) The metabolome analysis further indicated differential flux to aspartate, oxidized GSH, and GSH-reduced in CWR22Rv1 cells incubated with NAF- or CAF-conditioned media. (FIG. 3F) Glutamine concentrations were measured in the conditioned media from indicated mouse fibroblasts cultured for 72 hours. (FIG. 3D-FIG. 3F) Statistical analysis was performed using two-tailed student's t test (n≤3). (FIG. 3G) CWR22Rv1 proliferation was measured by cell counting following incubation with NAF and CAF conditioned media for 72 hrs in glutamine free media. […]

CWR22Rv1 [4] = assay: qPCR of neuroendocrine marker genes, CWR22Rv1; type: cell-based, human; conditions: CWR22Rv1, L-glutamine alone vs vehicle; F-test P<0.0001
Description: as §1

[5] = system: human prostate cancer cells (CWR22Rv1); assay: Gene expression in prostate cancer cells (FIG. 15A-D); type: cell-based; conditions: for Bone morphogenic protein (BMP) expression: CWR22Rv1 (FIG. 15A); for TET2 expression: FIG. 15C, 15D
prostatic fibroblasts = assay: Glutamine in conditioned media of prostatic fibroblasts; type: cell-based; conditions: FIG. 17C
Description: (§2) Measurements of glutamine. Glutamine was measured in blood plasma and conditioned media by using glutamine detection kit (Abcam) following manufacturer protocol. Deproteinization step was performed in plasma samples prior to glutamine detection. The absorbance was measured at 450 nm using a Bio-Rad Benchmark plus microplate spectrophotometer (Bio-Rad Laboratories).

[6] = system: CWR22Rv1 and CAF tissue recombinants; assay: Castrate resistant sub-renal capsule xenograft (castration + enzalutamide); conditions: castrated mice treated with enzalutamide alone
Description: Tissue recombination mouse models. Cell recombinants were prepared by mixing 2×10^5 epithelial (CWR22Rv1) cells with 6×10^5 CAFs or stromal cells expressing KRAS^V12 per site in collagen as described before (Banerj ee J, Mishra R, Li X, Jackson R S, 2nd, Sharma A, and Bhowmick N A. A reciprocal role of prostate cancer on stromal DNA damage. Oncogene. 2014; 33(41):4924-31). The mice were either left intact or castrated 1 week after grafting. […] Castrated mice were treated with enzalutamide (5 mg/kg) either alone or in combination with L-glutamic acid Υ-(p-nitroanilide) hydrochloride (GPNA; 10 mg/kg; Sigma-Aldrich) for three weeks. The tumor volumes were measured using digital calipers and calculated using the following formula: length (mm)×width (mm)×width (mm)×0.52. When the mice were sacrificed and tumors were excised and photographed. Formalin-fixed, paraffin-embedded (FFPE) xenograft tumor tissue was sectioned and stained with hematoxylin and eosin (H&E) and staining for chromogranin A, TUNEL, phosphorylated-hi stone H3 and phosphorylated-mTOR.

bone marrow fibroblasts = assay: Glutamine expression by bone marrow fibroblasts; type: cell-based; conditions: FIG. 15E, FIG. 17D
Description: as §2

[7] = system: prostate cancer (serum PSA); assay: PSA response of PCa patients on androgen targeted therapy; type: in vivo, human; parameters: PSA on treatment: unit not given beside the values
From the text: Plasma glutamine level may be prognostic for ADT sensitivity. Considering the striking finding that glutamine can induce ADT resistance, we tested if glutamine concentrations can be associated with ADT sensitivity in prostate cancer patients. We measured blood plasma glutamine concentrations in 28 PCa patients that received ADT (Table 1). Of note, the specific androgen signaling-axis interventions in the patient pool included, androgen receptor antagonists: bicalutamide, enzalutamide, and apalutamide, as well as androgen synthesis inhibitors: leuprolide, goserelin, triptorelin, and abiraterone.

## C[C@]1(O)CC[C@H]2[C@@H]3CCC4=CC(=O)CCC4=C3C=C[C@@]21C [R1881]
RASAL3 mRNA in NAF
  RASAL3 mRNA expression in NAF: no effect
RASAL3 mRNA in CAF
  RASAL3 mRNA expression in CAF: significantly elevated
RASAL3 promoter
  methylation of the RASAL3 promoter (methylation specific PCR): hypomethylation
RASAL3 exon 2
  prevention of CpG methylation of RASAL3 exon 2, over vehicle treated CAF: 2.6 fold

## NC(=O)CC[C@H](N)C(=O)O [glutamine, L-glutamine]
[1]
  ALDH (stem marker): upregulates
C4-2B cells
  neuroendocrine differentiation (marker gene expression): induce neuroendocrine differentiation
CWR22Rv1 [2]
  SLC38A1 transporter expression: did not seem to be regulated
CWR22Rv1 [2]; time dependent
  expression of glutamine importers SLC1A5 and SCL38A2: consistently increased
C4-2B
  SLC38A1 transporter expression: did not seem to be regulated
C4-2B; time dependent
  expression of glutamine importers SLC1A5 and SCL38A2: consistently increased
C4-2B; within 6 hours of treatment
  GLS and GLS2 mRNA expression: promote
CWR22Rv1 [3]
  CWR22Rv1 proliferation: restored CWR22Rv1 proliferation
CWR22Rv1 [4]
  expression of neuroendocrine gene panel: upregulated
[5]
  Bone morphogenic protein (BMP) expression: upregulated
  TET2 expression: upregulates
[5]; increasing doses of Gln (FIG. 15B)
  osteopotegrin (OPG) and FoxMl expression: upregulates

## CNC(=O)c1ccc(N2C(=S)N(c3ccc(C#N)c(C(F)(F)F)c3)C(=O)C2(C)C)cc1F [enzalutamide]
Prostatic fibroblasts
  glutamine expression in the conditioned media of prostatic fibroblasts: promotes
[6]
  tumor growth under ADT: expanded despite ADT
[1]
  ALDH (stem marker): upregulates
RASAL3 mRNA in NAF
  RASAL3 mRNA expression in NAF: downregulated
RASAL3 mRNA in CAF
  RASAL3 mRNA expression in CAF: little effect
Bone marrow fibroblasts
  glutamine expression in bone marrow fibroblasts: promotes
RASAL3 promoter
  methylation of the RASAL3 promoter (methylation specific PCR): hypermethylation
[7]; individual PCa patient on the listed Rx
  PSA on treatment: 0.1 and 344.3 and <0.1 and 116.7
[7]; individual PCa patient, responsiveness to ADT based on serum PSA
  Outcome: Responsive (2×) and Non- (2×)
[5]
  Bone morphogenic protein (BMP) expression: upregulated
  TET2 expression: induces
